Patent publication US20130197043A1, “USE OF THE FETAL REPROGRAMMING OF A PPAR AGONIST” (SNU R&DB FOUNDATION, priority 2010, published 2013)

Assays:
[1] = test system: leptin receptor-deficient mouse (db/db); test: Glucose tolerance test in type II diabetes mouse model after fetal reprogramming; format: in vivo; details: homo type male db/db fetuses; mother dosed only during lactation
Method: The present researchers have checked the fetal reprogramming effect of PPAR δ by using a leptin receptor-deficient mouse (db/db). After hetero type female and male mice were bred, the PPAR δ agonist (CMDD1111) was administered to the female mice only during the lactation period. The glucose tolerance test (GTT) was conducted using only homo type male fetuses having induced diabetes through gene analysis and blood glucose analysis.

[2] = Maternal treatment: side effects, fetal body weight, growth, skeleton staining; format: in vivo, mice
Method: The present inventors used a method of administering a PPAR δ agonist to a pregnant mother (maternal treatment) in order to investigate the role of fetal reprogramming of PPAR δ during mammalian development. For the fetal reprogramming, the PPAR δ agonist was orally administered to pregnant mice at a concentration of 10 mg/kg every day, and a specific experiment method was summarized in FIG. 1.
Fertile female mice and male mice were bred, and then pregnancy or not was checked by plug confirmation. CMDD1111 was orally administered to pregnant female mice at a concentration of 10 mg/kg once per day every day for six weeks (gestation and lactation periods). Side effects due to the administered material were not observed during the gestation period. The weight of a fetus group administered with vehicle during the gestation period was 1.33±0.11 g, and the weight of a fetus group administered with CMDD1111 was 1.37±0.09 g. The weight difference between the two groups was not shown (FIG. 3). In addition, growth inhibition or promotion due to the administered material was not observed in the comparison results of growth rate of fetus for 3 weeks (FIG. 4). There was no difference in body weight between the two groups as adults (FIG. 5). Deformity due to the administered material was not observed in the skeleton staining results using Alizaren red S and Alician blue dye (FIG. 6).

[3] = test system: mice subjected to fetal reprogramming; test: Body weight gain on high-fat feedstuff of fetal-reprogrammed mice; format: in vivo; details: 13-week old mice, 35% fat feedstuff, 84 days
Source text: Lipometabolism has deep correlation with the occurrence of obesity and diabetes. Therefore, the present inventors checked the fetal reprogramming effect of PPAR δ on the occurrence of metabolic syndrome. The control group and administration group of 13-week old mice were fed with high-fat feedstuff (fat content: 35%) over a total of 84 days while being weighed once per week. As a result, it may be seen that, the body weight gain was suppressed by 8% in the mice subjected to fetal reprogramming by PPAR δ agonist compound (CMDD1111) as compared with the control group, as shown in FIG. 18.

[4] = test system: gene expression in gastrocnemius muscle; test: Gene expression analysis using microarray; format: in vivo, mice
Source text: As for an animal, the gastrocnemius muscle of 3-week old mice fetal-reprogrammed by PPAR δ agonist (CMDD1111) was resected, and then total RNA was extracted by using the Trizol reagent (Gibco). The isolated RNA was subjected to quantitative and purity verification processes, and then used for gene expression analysis using a Mouse 430 2.0 (Affimatrix) chip.

PPAR δ-deficient cells = test: Primary cell culture and real-time PCR gene expression analysis, PPAR δ-deficient cells; format: cell-based, mouse; details: 300 nM
Method: However, it has not been reported that the PPARs response element (PPRE) is present at promoters of these three genes. Therefore, the present inventors resected the muscle of the mouse with the removal of PPAR δ gene and conducted primary culture, in order to verify whether or not the increases in expressions of the above three genes are PPAR δ-dependent. After hind legs of a five-day-old fetus was resected, primary culture was conducted by the same method as developed by Rando (Rando et al, J. Cell. Biol., 1994, 125, 1275-1287). Myoblast, after being cultured, was transferred to a 6-well plate, and then differentiated into myotube while being treated with 300 nM of PPAR δ agonist (CMDD1111). The differentiated myotube was further treated with 300 nM of PPAR δ agonist (CMDD1111) for 2 days, and then total RNA was extracted by using a TRIzol reagent (Gibco). The extracted RNA was subjected to reverse transcription, to synthesize cDNA, which was then used as a template for real-time PCR analysis.
As the result of real-time PCR analysis, expressions of PDK4 and CPT-1, known to be directly regulated by PPAR δ, were increased by 2.2 fold and 1.5 fold, respectively. However, there was no change in PPAR δ-deficient cells. This means that expressions of PDK4 and CPT-1 are PPAR δ-dependently regulated. […]

[5] = test system: mice subjected to fetal reprogramming; test: Respiratory exchange ratio (RER) measurement using Oximax; format: in vivo
Method: RER is a ratio of the amount of CO2 exhaled to O2 inhaled in one breath. The RER is 1.0 when carbohydrate is mainly used for energy production, while the RER is 0.7 when fat is used. […] The RER experiment using Oximax (Columbus) was conducted in order to evaluate whether or not this increase in slow muscle fiber generation actually influenced mouse energy metabolism. […] Since the RER has a periodic value depending on the time, the RER difference between the two groups was more clearly compared by using AUL, in order to check the RER difference between the two groups. The average AUL value of the control group was 107.4±1.4. Whereas, the average AUL value of the mouse group subjected to fetal reprogramming was 102.2±2.8, which was lower than that of the mouse control group (FIG. 17).
The present inventors checked a difference in lipid oxidation capacity between the two groups by using the following equations.
Carbohydrate oxidation=(4.51·RER−3.18)·VO2
Lipid oxidation=1.67·(1−RER)·VO2
As the calculation result, it may be seen that the mouse group to which PPAR δ agonist (CMDD1111) was administered during the fetal programming period used more lipid by average 44% (6.6 mg/kgmin vs. 9.5 mg/kgmin) but less carbohydrate by 20% (48 mg/kgmin vs. 38 mg/kgmin), as compared with the control group to which vehicle was administered. Therefore, it may be seen that the mice in which PPAR δ was activated during the fetal programming period had increased slow muscle fiber generation and thus increased the lipometabolism.

[6] = microarray, gastrocnemius muscle, 3-week old mice

In the case of `Cc1cc(SC(Cc2ccccc2)c2sc(-c3ccc(C(F)(F)F)cc3)nc2C)ccc1OCC(=O)O` (stereo not drawn) [CMDD1111], the “glucose tolerance (GTT)” value [1] is reported as “improved”, the “growth inhibition or promotion (growth rate of fetus)” value ([2]; 3 weeks) is reported as “not observed” and the “deformity in skeleton staining” value ([2]; Alizaren red S and Alician blue dye) is reported as “not observed”. For the same molecule, the “body weight versus vehicle group” value ([2]; as adults) was “no difference”, the “side effects due to the administered material” value ([2]; gestation period, 10 mg/kg oral once per day) was “not observed” and the “weight of fetus group” value ([2]; immediately after birth, mother 10 mg/kg during gestation) was 1.37 ± 0.09 g. For the same molecule, the “body weight gain suppression versus control” value [3] was 8%, the “expressions of genes commonly expressed in the heart muscle (RYR2, ATP2A2, PLN)” value ([4]; fetal-reprogrammed mouse group) was “remarkably increased” and the “expression of ATPase, Ca2+ transporting (SERCA)” value [4, 6] was 1.4 fold. For the same molecule, the “expression of CamIIb” value [4, 6] was 1.4 fold, the “expression of CamIId” value [4, 6] was 1.8 fold and the “expression of HDAC4 (decrease)” value [4, 6] was −1.5 fold. For the same molecule, the “expression of Mef2a” value [4, 6] was 1.4 fold, the “expression of PPARγ coactivator 1a” value [4, 6] was 1.7 folds and the “expression of Troponin I” value [4, 6] was 3.2 fold. The “expression of Troponin T2” value [4, 6] was 2.3 fold, the “expression of acyl CoA dehydrogenase (ACAD)” value [4, 6] was 1.7 fold and the “expression of acyl CoA synthetase (ACSL)” value [4, 6] was 1.5 fold. The “expression of carnitine palmitoyl transferase 1a (CPT-1a)” value [4, 6] was 1.4 fold, the “expression of cytochrome 8a (COX8A)” value [4, 6] was 1.7 fold and the “expression of myosin binding protein C3 (MYBPC3)” value [4, 6] was 2.8 fold. The “expression of myosin heavy chain 6 (Myh6)” value [4, 6] was 2.7 fold, the “expression of myosin light chain 7 (Myl7)” value [4, 6] was 2.9 fold and the “expression of pantothenate kinase 1 (PANK1)” value [4, 6] was 2.4 fold. The “expression of phospholamban (PLN)” value [4, 6] was 2.8 fold, the “expression of ryanodine receptor 2 (RYR2)” value [4, 6] was 2.8 fold and the “expression of ryanodine receptor 3 (RYR3)” value [4, 6] was 2.0 fold. For the same molecule, the expression of ubiquinone [4, 6] was 2.0 fold, the “expression of uncoupling protein 2 (UCP2)” value [4, 6] was 1.5 fold and the “expression of uncoupling protein 3 (UCP3)” value [4, 6] was 2.3 fold. The “expressions of PDK4 and CPT-1” value (PPAR δ-deficient cells) was “no change”, the carbohydrate oxidation ([5]; calculated from RER and VO2) was 38 mg/kgmin and the “less carbohydrate used versus vehicle control” value ([5]; calculated from RER and VO2) was 20%. The lipid oxidation ([5]; calculated from RER and VO2) was 9.5 mg/kgmin, the “more lipid used versus vehicle control” value ([5]; calculated from RER and VO2) was 44% and the “average AUL value of RER” value ([5]; mouse group subjected to fetal reprogramming) was 102.2±2.8.
